In paper PMC7391726, “Fatty acid mimetic PBI-4547 restores metabolic homeostasis via GPR84 in mice with non-alcoholic fatty liver disease” (Scientific Reports, 2020):
Like-named read-outs stand apart in the source and are kept apart here.

Assays:
GPR40 = molecular target: T1, GPR40 (Homo sapiens, UniProt O14842); test: BRET Gαq / Gαi2 activation biosensors in HEK293 cells transfected with GPR40; assay type: cell-based
T1 construct: expressed in transfected cells; host or cells: HEK293
Procedure: Figure 1 PBI-4547 binding and activity on GPR84, GPR40, GPR120, and PPAR receptors. (A) Chemical structure of PBI-4547. (B) Gi pathway activation was monitored in HEK293 cells transfected with GPR84 and the Gαi2 activation biosensor. Cells were co-treated with […] sodium decanoate and increasing concentrations of PBI-4547, and BRET variation compared with vehicle was measured. (C) β-arrestin 2 recruitment to activated GPR120 receptor was monitored in HEK293 cells transfected with RLuc8-β-arrestin 2 and GPR120-GFP10. (D) Cells transfected with GPR40 and Gαq or Gαi2 activation biosensor were exposed to increasing concentrations of PBI-4547 or to 500 µM of sodium decanoate, and BRET variation compared with vehicle was measured. Cells were exposed to increasing concentrations of PBI-4547 or to 100 µM of GW9508, and BRET variation compared with vehicle was measured. […] Data in (B–D) are expressed as means ± SEM of 4–5 experiments; data in (E,F) are from a representative experiment from a total of 3 to 4 independent experiments. […]
BRET measurements in transiently transfected HEK293 cells were performed as previously described. Ligands were incubated with cells at room temperature for 10 min (G protein biosensors) or 25 min (β-arrestin/GPR120) before collecting BRET[2] readings between Rluc8 and GFP10.

PPARα = molecular target: T2, PPARα (Homo sapiens, UniProt Q07869); test: Cell-based GAL4 transactivation assay in HEK293 cells, PPARα LBD; details: HEK293, 24 h; read-out: EC50, PPARα transcriptional activity
T2 construct: human PPARα (S167–Y468); expressed in transfected cells; host or cells: HEK293
T2 sequence (Q07869 167-468): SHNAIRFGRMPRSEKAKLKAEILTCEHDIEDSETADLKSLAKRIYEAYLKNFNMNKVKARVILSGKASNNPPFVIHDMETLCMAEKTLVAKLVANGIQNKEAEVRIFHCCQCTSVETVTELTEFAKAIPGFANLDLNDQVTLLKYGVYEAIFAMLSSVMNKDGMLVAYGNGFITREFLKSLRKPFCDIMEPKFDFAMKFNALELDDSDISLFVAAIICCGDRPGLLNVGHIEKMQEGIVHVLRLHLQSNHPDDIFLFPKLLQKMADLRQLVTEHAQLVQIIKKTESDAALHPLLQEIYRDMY
Excerpt: To determine the transcriptional activity of PBI-4547, a cell-based GAL4 transactivation assay in HEK293 cells transfected with either PPARα, PPARδ, or PPARγ LBD was used. […] However, PBI-4547 only partially activated PPARγ transcriptional activity, with a relative maximal efficacy of 38% of the control agonist rosiglitazone.
Generation of the Gαi2, Gαq, and GPR40/β-arrestin-2 BRET biosensors have been described previously. A plasmid encoding the human GPR120-L (long isoform) cDNA was obtained from R&D Systems. GPR120-S (short isoform) was generated by replacing the BglII-BsgI fragment from GPR120-L by a gBlock gene fragment (Integrated DNA Technologies, Coralville, IA) lacking the DNA sequence corresponding to the extra 16 amino acids found in the third intracellular loop of the long form. The GPR120-GFP10 construct was generated by inserting PCR-amplified GPR120-S (without its stop codon) in place of GPR40 in the GPR40-GFP10 plasmid. […]
HEK293 cells were co-transfected with pGL4.35[luc2P/9XGAL4UAS/Hygro] and GAL4-PPAR-Rluc plasmids, and after 24 h of incubation were treated with compounds for 24 h. Luciferase activity was determined with the Dual Glo luciferase assay (Promega). Firefly luminescence was normalized to the constitutively expressed Renilla luminescence, and results expressed as fold induction of vehicle control.

T1 sequence (O14842 whole entry, species assumed): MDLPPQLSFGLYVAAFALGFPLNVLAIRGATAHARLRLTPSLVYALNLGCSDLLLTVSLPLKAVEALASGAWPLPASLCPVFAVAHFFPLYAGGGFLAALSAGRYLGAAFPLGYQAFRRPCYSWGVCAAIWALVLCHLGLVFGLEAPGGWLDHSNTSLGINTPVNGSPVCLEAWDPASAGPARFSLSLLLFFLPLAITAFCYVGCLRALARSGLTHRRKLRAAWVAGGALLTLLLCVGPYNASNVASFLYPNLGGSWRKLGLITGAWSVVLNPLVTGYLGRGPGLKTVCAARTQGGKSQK

EC50 (GPR40; Gαi2 biosensor, read-out: EC50, GPR40 Gαi2 biosensor BRET signal decrease): 27 µM
EC50 (GPR40; Gαq biosensor, read-out: EC50, GPR40 Gαq biosensor BRET signal decrease): 30 µM
EC50 (PPARα): 42 µM
SMILES: CCCCCc1cc(CCCCC)cc(CC(=O)[O-])c1.[Na+] [PBI-4547, 2-[3,5-dipentylphenyl]acetate sodium salt]
